{
  "source": "paper PMC6151660",
  "about": "(Molecules : A Journal of Synthetic Chemistry and Natural …, 2017)",
  "origin": "cited, not measured here",
  "tested_on": "M. tuberculosis, H37Rv",
  "details": "cited from earlier work",
  "data": [
    {"molecule": "CO[C@@H]1[C@@H](OC(N)=O)[C@@H](O)[C@H](Oc2ccc3c(O)c(NC(=O)c4ccc(O)c(CC=C(C)C)c4)c(=O)oc3c2C)OC1(C)C", "note": "[Novobiocin]", "values": [
      {"measurement": "MIC", "value": "approximately 6.5 µM"}
    ]}
  ]
}
